Test results: US6262017A, “Peptides for altering osteoblast adhesion” (Research Corporation Technologies, Inc., priority 1998, dated 2001)
Peptide text beside a SMILES is read from it.

Columns and labels:
[1] = test system: BMD osteoblast-like cells; assay: BMD osteoblast-like two-hour competitive adhesion on KRSRGGG-modified substrates; format: cell-based
Protocol: The effect of pre-incubation of BMD osteoblast-like and osteoclast-like cells was also examined with similar results (Tables 8 and 9).

[2] = test system: osteoblasts; assay: Osteoblast four-hour adhesion on peptide-modified glass substrates; format: cell-based
Description: Using standard protocols, 3-aminopropyltriethoxysilane was used to immobilize exposed amine groups on the surfaces of glass substrates, and 1-ethyl-3-(3dimethylaminopropyl)carbodimide was used to bind peptides having the sequence KRSRGGG (SEQ ID NO:4) to the exposed amine groups on the glass substrates.
(§1) Peptides were immobilized on substrate surfaces (borosilicate glass, 18 mm round coverslips; Fisher) using silane coupling techniques adapted from published protocols [Weetall Applied Biochem. Biotech. 41, 158-188 (1993); Robinson et al. Biochim. Biophys. Acta 242, 659-661 (1971); and Baum et al. Biochim. Biophys. Acta 268, 411-414 (1972)], the disclosures of which are incorporated herein by reference. Briefly, 3-aminopropyltriethoxysilane (Sigma) was allowed to react with hydroxyl groups on the material surfaces to produce "aminophase" substrates.
(§2) In preparing for peptide immobilization, borosilicate glass coverslips (Fisher) were etched for one hour in a 3:1 (v/v) solution of 2 N sulfuric acid and 2 N nitric acid, degreased in acetone and ethanol, and rinsed with distilled water. The degreased and acid-etched substrates were placed in glass petri dishes which had been previously cleaned with a 3.5% solution of 30% hydrogen peroxide in 18 M sulfuric acid.
(§3) The substrates were dried at 160° C. for at least one hour, rinsed with dry acetone, and immersed in 2% 3-aminopropyltriethoxysilane in dry acetone, supplemented with 2% triethylamine under an argon atmosphere at […] for one hour. The substrates were rinsed (under an argon atmosphere) once with methylene chloride and twice with dry acetone, and cured under argon at 120° C. for three hours.
(§4) Peptides were covalently bound to immobilized exposed amine groups on the substrate surfaces during a twenty-minute incubation (under argon) with a 25:25:1 (v/v/v) solution of peptide (0.1 mM in dry N,N-dimethylformamide):1-ethyl-3-(3-dimethylaminopropyl)carbodiimide (2.5 mg/mL in dry N,N-dimethylformamide): n-ethylmorpholine. Unreacted amine groups were passivated by soaking peptide-modified substrates in acetic anhydride for 5 minutes; absorbed peptides were then removed by soaking for 5 minutes in 4 M urea, rinsing in distilled water, and soaking for 5 minutes in 1 M sodium chloride. Peptide-modified substrates were then thoroughly rinsed in distilled water prior to sterilization and use.
(§5) Substrates which had been etched in a 3:1 (v/v) solution of 2 N sulfuric acid: 2 N nitric acid, degreased in acetone and ethanol, and rinsed copiously with distilled water were used as references. Glass substrates were sterilized via overnight ultraviolet irradiation prior to use in experiments.

[3] = test system: osteoblasts; settings: cultured for two weeks on peptide-modified Ti-6Al-4V
Description: In the present study, medical grade Ti-6Al-4V stock (ASTM F-136; Osteonics) was sectioned into coupons using a low-speed saw equipped with a diamond wafering blade. The metal coupons were then polished to a 30 micron finish via sanding (using 600 grit paper on a sanding wheel), polishing to a 15 micron finish and then to a 9 micron finish (using diamond spray on a polishing wheel), and finally polishing to a 3 micron finish using aluminum oxide (Al2 O3) mixed with 30% hydrogen peroxide on a polishing wheel), according to standard techniques. Polished metal coupons were degreased with acetone and ethanol and rinsed copiously with distilled water before peptides were immobilized on the metal surfaces (via the aforementioned techniques).

[4] = test system: endothelial cells; assay: Endothelial cell four-hour adhesion on peptide-modified glass; format: cell-based; settings: for Cell density, Average: four-hour adhesion, peptide immobilized on glass
Description: as §1, §2, §3, §4
as §5, with “In all experiments performed in the present invention, substrates which had been aminated but not peptide-grafted (i.e., aminophase substrates) were used as controls. Substrates” for “Substrates”

[5] = test system: osteoblasts; assay: Osteoblast four-hour adhesion in the absence and presence of 0.2 U/ml heparinase; format: cell-based; settings: for Cell density, Average: Table 10, four-hour adhesion
Description: The heparinase used degrades heparan sulfate in a very selective manner.
as §1, §2, §3, §4
as §5, with “In all experiments performed in the present invention, substrates which had been aminated but not peptide-grafted (i.e., aminophase substrates) were used as controls. Substrates” for “Substrates”

[6] = test system: bone marrow derived (BMD) osteoblast-like cells; assay: Bone marrow-derived osteoblast-like cell four-hour adhesion on peptide-modified glass; format: cell-based; settings: Table 2, peptide immobilized on glass
Description: as §1, §2
as §3, with “hours. […]” for “hours.”

[7] = test system: BMD osteoclasts (bone-resorbing cells); assay: Four-hour adhesion of Table 3 (title: BMD osteoblast-like cell; text: BMD osteoclasts) on peptide-modified glass; format: cell-based; settings: for Cell density, Average: Table 3, four-hour adhesion, peptide immobilized on glass
Description: as §1, §2, §3
as §4, with “use. […]” for “use.”

[8] = test system: calvarial osteoblasts; assay: Calvarial osteoblast two-hour competitive adhesion on KRSRGGG-modified substrates after pre-incubation with soluble peptide; format: cell-based
[9] = test system: fibroblasts; assay: Fibroblast adhesion on peptide-modified surfaces; format: cell-based; settings: surfaces modified with peptide
[10] = Table 8, peptide concentration 0.5 mM
[11] = Table 8, peptide concentration 1.0 mM
[12] = Table 8, peptide concentration 1.5 mM
[13] = Table 8, peptide concentration 2.0 mM
[14] = Table 6, KRSR peptides of different lengths on glass
[15] = Table 1, peptide immobilized on glass
[16] = Table 4 (second, identical print)

| Compound | Cell Adhesion expressed as % control [1, 10] [% control] | Cell Adhesion expressed as % control [1, 11] [% control] | Cell Adhesion expressed as % control [1, 12] [% control] | Cell Adhesion expressed as % control [1, 13] [% control] | Cell density, Average [2, 14] [Cells/cm^2] | Cell density, Average ([2]; Table 5, KRSR vs HHWH on glass) [Cells/cm^2] | Cell density, Average [2, 15] [Cells/cm^2] | Cell density, Average ([4]; Table 4 (first print)) [Cells/cm^2] | Cell density, Average [4, 16] [Cells/cm^2] | Cell density, Average ([5]; Heparinase 0.2 U/ml) [Cells/cm^2] | Cell density, Average ([5]; Heparinase none) [Cells/cm^2] | Cell density, Average [6] [Cells/cm^2] | Cell density, Average [7] [Cells/cm^2] | further results |
| --- | --- | --- | --- | --- | --- | --- | --- | --- | --- | --- | --- | --- | --- | --- |
| N=C(N)NCCC[C@H](NC(=O)[C@H](CO)NC(=O)[C@H](CO)NC(=O)[C@@H](N)CCCCN)C(=O)NCC(=O)NCC(=O)NCC(=O)O [KSSRGGG, Lysine-Serine-Serine-Arginine-Glycine-Glycine-Glycine, reference compound] (H-KSSRGGG-OH) | 109.52 | 93.65 | 101.59 | 107.94 | – | – | – | – | – | – | – | – | – | – |
| KRSRQGGGGG [KRSR peptide of a different (longer) spacer length attached to the substrate] | – | – | – | – | 1708 | – | – | – | – | – | – | – | – | – |
| Histidine-Histidine-Tryptophan-Histidine (HHWH) [reference compound] | – | – | – | – | – | 1080 | – | – | – | – | – | – | – | – |
| Arginine-Aspartic Acid-Glycine-Serine [RDGS, reference compound] | – | – | – | – | – | – | 1656 | 1570 | 1570 | 378 | 1656 | 1712 | 2188 | Osteoblast morphology and cytoskeletal organization [3]: normal morphology and cytoskeletal organization |
| N=C(N)NCCC[C@H](NC(=O)[C@H](CO)NC(=O)[C@H](CCCNC(=N)N)NC(=O)[C@@H](N)CCCCN)C(=O)NCC(=O)NCC(=O)NCC(=O)O [KRSRGGG, H-Lys-Arg-Ser-Arg-(Gly)3 --OH] (H-KRSRGGG-OH) | 81.63 | 78.91 | 66.67 | 55.5 | 1770 | – | 2145 | 1600 | 1600 | 330 | 2145 | 2332 | 2377 | Endothelial cell adhesion to peptide-modified surfaces (in words) ([4]; surfaces modified with peptide): do not adhere in significantly greater numbers; Effect of pre-incubation of osteoblasts with peptide on adhesion to KRSR-modified substrate (in words) [8]: significant decrease in adhesion; Effect of heparinase treatment on osteoblast adhesion (in words) ([5]; heparinase treatment, peptide-modified substrate): significantly inhibited adhesion; BMD osteoclast adhesion versus other treated or untreated surfaces (in words) ([7]; peptide-modified surfaces): in greater numbers; Fibroblast adhesion to peptide-modified surfaces (in words) [9]: do not adhere in significantly greater numbers |
| H-Lys-Arg-Ser-Arg-OH (H-KRSR-OH) | – | – | – | – | 1508 | 1508 | – | – | – | – | – | – | – | – |
